Data set [1] is described as follows: Solid form stability of forms of compound of formula (IV) (Temperature / Humidity Controlled XRPD, storage, suspension). Type of data set: physicochemical. As to the method: The term"XRPD" denotes the analytical method of X-Ray Powder Diffraction. XRPD patterns were recorded at ambient conditions in transmission geometry with a STOE STADI P diffractometer (Cu K alpha radiation source, primary monochromator, position sensitive detector, angular range 3° to 42° 2Theta, approximately 60 minutes total measurement time). The repeatability of the angular values is in the range of 2Theta ±0.2°. The term "approximately" given in combination with an angular value denotes the repeatability which is in the range of 2Theta ±0.2°. The samples were prepared and analyzed without further processing (e.g. grinding or sieving) of the substance. The relative XRPD peak intensity is dependent upon many factors such as structure factor, temperature factor, crystallinity, polarization factor, multiplicity, and Lorentz factor. Relative intensities may vary considerably from one measurement to another due to preferred orientation effects. Humidity Controlled XRPD analyses were performed in reflection geometry with a Siemens D5000 Diffractometer (Cu radiation source, Ni K beta filter, Scintillation detector, angular range 3° to 42° 2Theta, approximately 180 minutes total measurement time per humidity level). The diffractometer is equipped with an MRI (Materials Research Instruments) humidity chamber. The humidity within the chamber is adjusted with an ANSYCO humidity controller (SYCOS H-HOT). For single crystal structure analysis a single crystal sample was mounted in a nylon loop on a goniometer and measured at ambient conditions. Alternatively, the crystal was cooled in a nitrogen stream during measurement. Data were collected on a GEMINI R Ultra diffractometer from Oxford Diffraction. Cu-radiation of 1.54 A wavelength was used for data collection. Data was processed with the Oxford Diffraction CRYSALIS software. The crystal structure was solved and refined with standard crystallographic software. In this case the program ShelXTL from Bruker AXS (Karlsruhe) was used. The abbreviation "FWHM" denotes the full width at half maximum, which is a width of a peak (e.g. appearing in a spectrum, particularly in an XRPD pattern) at its half height. The term "sharp Bragg diffraction peak" in connection with X-ray diffraction patterns denotes a peak which is observed if Bragg' s law of diffraction is fulfilled. Generally, the FWHM of a sharp Bragg diffraction peak is less than 0.5° 2-theta. The term "amorphous halo" in connection with X-ray diffraction patterns denotes an approximately bell- shaped diffraction maximum in the X-ray powder diffraction pattern of an amorphous material. The FWHM of an amorphous halo is on principle larger than the FWHM of the peak of crystalline material. The terms "FTIR" and "IR" denote the analytical method of infrared spectroscopy. The IR-spectra of the samples are recorded as film of a Nujol suspension consisting of approx. 5 mg of sample and approx. 5 mg of Nujol (mineral oil) between two sodium chloride plates (cross section 13 mm) in transmittance with a FTIR- spectrometer. The spectra were recorded in spectral range between 4000 cm"1 and 600 cm"1, resolution 2 cm"1, and 300 coadded scans on a Magna 860 (thermo/Nicolet) equipped with a DTGS detector. The term "Raman" denotes the analytical method of Raman spectroscopy. For recording Raman spectra, the samples were spread on a glass slide. Raman spectra were recorded in the range of 150-3800 cm"1 with an ARAMIS (HoribaJobinYvon) Raman microscope equipped with a Peltier cooled CCD detector, at excitation of 633 nm, a 1200 1/mm grating, a x50 objective and with 3 exposures of 3s, or 7s for weak Raman scatterers. The term "DSC" denotes the analytical method of Differential Scanning Calorimetry. DSC thermograms were recorded using a Mettler-Toledo™ differential scanning calorimeter DSC820, DSC821 or DSC1 with a FRS05 sensor. […]

The nature of data set [2]: Hygroscopicity of solid forms of compound of formula (IV) (Ph. Eur. classification). Type of data set: physicochemical. As to the method: For the thermogravimetric analyses, approx. 5 - 10 mg of sample were placed in aluminum pans, accurately weighed and hermetically closed with perforation lids. […] The samples were then heated under a flow of nitrogen of about 50 mL/min using a heating rate of 5 K/min. The term "micronization" denotes a process whereby the particle size of a solid material is diminished to a d50 value of less than IOµm by the aid of a suitable method, such as milling, bashing or grinding. […] The term "anti-solvent crystallization" denotes a process wherein supers aturation and as a result thereof crystallisation is achieved by addition of an antisolvent to the product solution. The term "ambient conditions" denotes conditions as experienced in a standard laboratory, e.g. atmospheric pressure, air, ambient temperature between 18 °C and 28 °C, humidity between 30 %rH and 80 %rH. The term "hygroscopicity" describes the ability of a solid material to adsorb moisture. The hygroscopicity of a given API is characterized [European Pharmacopoeia - 6th Edition (2008), Chapter 5.11) by the increase in mass when the relative humidity is raised from 0 %rH to 90 %rH: o non-hygroscopic: weight increase Am < 0.2%; o slightly hygroscopic: weight increase 0.2% < Am < 2.0%; o hygroscopic: weight increase 2.0% < Am < 15.0%; o very hygroscopic: weight increase Am > 15.0%; o deliquescent: sufficient water is adsorbed to form a liquid. The IUPAC lamda convention (W.H. Powell, Pure & Appl. Chem. […] The bonding number "n" of a heteroatom is the sum of the total number of valence bonds to adjacent atoms, if any, and the number of attached hydrogen atoms. The bonding number of a heteroatom is standard when it has the value given in the following table: n=4: C, Si, Ge, Sn, Pb; n=3 B, N, P, As, Sb, Bi, n=2: O, S, Se, Te, Po; n=l; F, CI, Br, I, At. A nonstandard bonding number of a (neutral) heteroatom is indicated by the symbol "λη", where "n" is the bonding number. […]

Data set [3] can be described thus: physchem. The method, then:
Anal. Chem. Instrum. […] Drug Delivery Rev. […] The binding constant (K) of the gamma-CD inclusion complex ({drug4g}) was calculated from the initial straight line portion of the phase solubility diagram by linear regression, according to the following equation [T. Higuchi et al., Adv. Anal. Chem. Instrum.

A short description of data set [4]: Biopharmaceutical classification system (BCS). The format is physicochemical. The source says: The compound of formula (IV), its manufacture, its pharmacological activity as inverse agonists of the GABA A a5 receptor, and its use for the treatment, prevention and/or delay of progression of various central nervous system (CNS) conditions have been described in WO 2009/071476. […] Res. (1995) 12:413-420]. […] If anhydrous solid forms of the compound of formula (IV), as described in WO 2009/071476, are selected for clinical development, a physical instability in terms of hydrate formation during pharmaceutical processing and/or storage of the drug product is possible. […] Further, the discovery of new solid forms of an API (polymorphs, solvates, salts, inclusion complexes) enlarges the repertoire of materials that a formulation scientist has available with which to design a pharmaceutical dosage form of a drug with a targeted release profile or other desired characteristics. Therefore, there is a need to find more solid forms of the compound of formula (IV). […] The instant invention provides novel solid forms of the compound of formula (IV) with improved solubility, dissolution rate, oral bioavailability as well as increased stability of the API. In addition, the instant invention provides novel inclusion complexes of compounds of formula (IV) with cyclodextrins. Such inclusion complexes further feature improved dissolution rate and bioavailability. […]

The values that follow come from EP2792360A1, “(1aR,12bS)-8-cyclohexyl-11-fluoro-N-((1-methylcyclopropyl)sulfonyl)-1a-((3-methyl-3,8-diazabicyclo[3.2.1]oct-8-yl)carbonyl)-1,1a,2,2b-tetrahydrocyclopropa[d]indolo[2,1-a][2]benzazepine-5-carboxamide for use in treating HCV” (IP Gesellschaft für Management mbH, priority 2013, dated 2014).

In brackets after ≈: the same amount, converted by molar mass. Some results are limits rather than exact numbers.

On to `Cc1onc(-c2ccc(F)cc2)c1COc1ccc(C(=O)N2CCS(=O)(=O)CC2)cn1` [Amorphous Form ({drug4f}), (1,1-dioxo-1lambda6-thiomorpholin-4-yl)-{6-[3-(4-fluoro-phenyl)-5-methyl-isoxazol-4-ylmethoxy]-pyridin-3-yl]-methanone], for which the “phase change upon storage at 100 rH at ambient temperature” value in data set [1] (Form C: prolonged period, e.g. 30 days) was “no phase transformation has been observed”. Besides, the hygroscopicity result in data set [2] is “slightly hygroscopic (slightly hygroscopic: weight increase 0.2% < Am < 2.0%)”.
On to `Cc1onc(-c2ccc(F)cc2)c1COc1ccc(C(=O)N2CCS(=O)(=O)CC2)cn1.O` [Form B ({drug4b}), (1,1-dioxo-1lambda6-thiomorpholin-4-yl)-{6-[3-(4-fluoro-phenyl)-5-methyl-isoxazol-4-ylmethoxy]-pyridin-3-yl]-methanone monohydrate], for which the “heating temperature at which the form transforms into Form A” value in data set [1] is over 100 °C. Also, the “stability as compared to Form A” value in data set [1] (in the presence of humidity, e.g. at ambient conditions) was “substantially increased”. Moreover, the hygroscopicity entry in data set [2] was “hygroscopic (hygroscopic: weight increase 2.0% < Am < 15.0%)”.
With `Cc1onc(-c2ccc(F)cc2)c1COc1ccc(C(=O)N2CCS(=O)(=O)CC2)cn1` [compound of formula (IV), (1,1-dioxo-1lambda6-thiomorpholin-4-yl)-{6-[3-(4-fluoro-phenyl)-5-methyl-isoxazol-4-ylmethoxy]-pyridin-3-yl]-methanone], the “type of phase solubility diagram with gamma-cyclodextrin” value in data set [3] is “Bs-type behavior”. Besides, in data set [4], the aqueous solubility result was “low aqueous solubility” and the biopharmaceutical classification entry was “BCS 2”.
The term solubility denotes the concentration that dissolves in the medium under given conditions. Consider `OC[C@H]1O[C@@H]2O[C@H]3[C@H](O)[C@@H](O)[C@@H](O[C@H]4[C@H](O)[C@@H](O)[C@@H](O[C@H]5[C@H](O)[C@@H](O)[C@@H](O[C@H]6[C@H](O)[C@@H](O)[C@@H](O[C@H]7[C@H](O)[C@@H](O)[C@@H](O[C@H]8[C@H](O)[C@@H](O)[C@@H](O[C@H]9[C@H](O)[C@@H](O)[C@@H](O[C@H]1[C@H](O)[C@H]2O)O[C@@H]9CO)O[C@@H]8CO)O[C@@H]7CO)O[C@@H]6CO)O[C@@H]5CO)O[C@@H]4CO)O[C@@H]3CO` [gamma-cyclodextrin], for which the concentration in solution in data set [3] (water) (solubility) came to 150 mM (≈ 195 mg/mL).
